Test results from publication PMC3578765 (PLoS Neglected Tropical Diseases, 2013).
“Also recorded” adds a separate entry of the source. Where two headings read alike, the source gives them in different places.

Assays:
[1] = test system: DENV1 (Den1 BR/90) infection in Huh-7.5; experiment: image-based dengue HT/HCA, 10-pt dose-response hit confirmation, DENV1; format: cell-based; settings: Dengue virus, read-out: EC50 DENV1
Protocol: (§1) An immunofluorescence assay (IFA) used to detect dengue infection was optimized for the dengue HT/HCA. Briefly, cells were fixed with 4% (w/v) paraformaldehyde (PFA) for 20 min at room temperature (Rm T). PFA-fixed cells were treated with 0.25% (v/v) Triton-X for 20 min at Rm T. DENV-infected cells were detected by probing with 4G2 mAb prepared in blocking buffer: DPBS containing 5% FBS for 30 min at 37°C, followed by AlexaFluor-conjugated goat anti-mouse IgG (H+L) (Invitrogen Molecular Probes, USA) prepared in blocking buffer for 30 min at 37°C. Cell nuclei counterstained with 5 µg/mL 4′,6-diamidino-2-phenylindole (DAPI, Sigma-Aldrich, USA). Two washing cycles of DPBS was done after each step of the IFA. After the final washing, digital images were acquired using a high-throughput confocal fluorescence imaging system (Evotec Technologies High-Throughput Cell Analyzer Opera, Perkin Elmer, USA). The digital images were taken from 3 different fields of each well at 20× magnification.
(§2) Acquired images were analyzed using our in-house developed image-mining platform (IM). This platform is designed to do high-content screening and directly access the database of images that were sequentially analyzed with specially designed algorithms developed as a customized plug-in to the IM platform. The results of all the analyses were stored in a centralized database. […] One channel (DAPI-channel) captures the signal emitted by DAPI-stained nuclei at 450 nm, while the other channel (A488-channel) captures the signal emitted by the AlexaFluor 488 dye bound to the dengue E protein-antibody complexes confined in the cytoplasm of dengue-infected cells at 540 nm. To define the percentage of dengue-infected cells and, conversely the non-infected cells, a modified watershed method was applied. Compared to the original watershed algorithm that uses the morphological gradient image, a weighted gradient image is used for the topographic surface, whose weights are defined as the ridge values computed from the eigen values of the original image. The percentage of non-infected cells, which is also defined as the percent inhibition or percent activity, is derived by using the formula: [1−(A488-positive cells/total cells)]×100%.
(§3) The BioFocus kinase inhibitor library were screened against DENV1, DEN2, DENV3 and DENV4 at 10 µM in 0.5% (v/v) DMSO. MOCK-infected Huh-7.5 and IFN-α2A (500 U/mL) were used as positive controls, and the 0.5% DMSO vehicle was used as negative control. Four sets of 15 384-well plates (13 plates designated for test compounds and 2 plates designated for DMSO vehicle control) were used for the primary screening of the BioFocus kinase inhibitor library against each dengue serotype. Each of the 4,000 compounds in the library was tested in single wells. For data normalization and quality control of the screening, each test compound plate contained 16 replicates of the positive and negative controls. After dispensing the test compounds IFN-α2A and DMSO vehicle in the 384-well plates, Huh-7.5 was mixed with DENV1, DENV2, DENV3, or DENV4 to achieve a M.O.I. of 0.5 and dispensed at 5×10^3 cells/well using the Thermo Scientific WellMate automated liquid dispenser. For the MOCK-infected Huh-7.5, the cells were mixed with VM and dispensed under the same conditions as previously stated. Virus infection in the presence of the compounds proceeded at 37°C, 5% CO2 for 96 hrs. Compound activity based on percent inhibition and cell toxicity was assessed by IFA and IM analysis as described above. Scatter-plot distribution of the entire screening was generated using TIBCO Spotfire 4.5.0 (TIBCO Software Inc., Somerville, MA).
(§4) The calculated activity was normalized to a percent inhibition (PI) based on the MOCK-infected cells (100% activity, or zero infection) and dengue-infected cells (0% activity, or maximum measured infection percentage) controls according to the formula: [drawing 1] where: PImeasured - percent inhibition of test compound […]

[2] = test system: DENV2 (BR DEN2 01-01) infection in Huh-7.5; experiment: image-based dengue HT/HCA, 10-pt dose-response hit confirmation, DENV2; format: cell-based; settings: Dengue virus, DENV2, Huh7.5; Huh-7.5, M.O.I. 0.5, 96 hrs; read-out: EC50 DENV2
Protocol: as §1, §2, §3, §4

[3] = test system: DENV3 (BR DEN3 290-02) infection in Huh-7.5; experiment: image-based dengue HT/HCA, 10-pt dose-response hit confirmation, DENV3; format: cell-based; settings: Dengue virus, DENV3, Huh7.5; Huh-7.5, M.O.I. 0.5, 96 hrs; read-out: EC50 DENV3
Protocol: as §1, §2, §3, §4

[4] = test system: DENV4 (DEN4 TVP-360) infection in Huh-7.5; experiment: image-based dengue HT/HCA, 10-pt dose-response hit confirmation, DENV4; format: cell-based; settings: Dengue virus, DENV4, Huh7.5; Huh-7.5, M.O.I. 0.5, 96 hrs; read-out: EC50 DENV4
Protocol: as §1, §2, §3, §4

[5] = compound toxicity, resazurin reduction assay in uninfected Huh-7.5; format: cell-based; settings: human, uninfected Huh-7.5 cells, Huh-7.5 without viral infection, 10-pt DRC
Protocol: The hits identified from the primary screening were also tested at 10 µM against CHIKV-118-GFP infection in HuH-7 cells and evaluated by resazurin reduction assay (RRA). Resazurin (7-Hydroxy-3H-phenoxazin-3-one 10-oxide) is reduced to the red fluorescent resorufin by redox enzymes produced by viable cells, and is a good indication of metabolic capacity, and by extension cell viability. The amount of converted resorufin was measured as relative fluorescence readout (RFU) at excitation/emission of 531/572 nm using a fluorescence spectrophotometer (Victor^3 V Spectrophotometer, Perkin Elmer, USA). Briefly, cells were inoculated with CHIKV-118-GFP at an M.O.I. of 0.5 and seeded in 384-well plates containing reference and primary hit compounds and incubated under humidified conditions for 72 hrs at 37°C. Resazurin solution was added to a final concentration of 10 µM and further incubated for another 12 hrs prior to measurement of RFU. The percent activity of the compounds, reflected by the percent cell viability, was quantified by normalizing against the RFUs of MOCK-infected cells and CHIKV-118-GFP-infected cells. Compounds resulting in normalized RFU ≥70% were considered as positive hits for anti-CHIKV activity.
To confirm the compound activity against dengue viruses, the selected hits from the primary screening were tested in a 10-pt. DRC (2-fold serial dilution from 50 µM) using the same assay described for the dengue HT/HCA. Each concentration of the hit compounds was tested in duplicate wells. Data generated from image analysis of the 10-pt. DRC was plotted and analyzed using the non-linear regression formula: log (inhibitor) vs. response – […] (4 parameters) in GraphPad Prism 5.04. […] Compound toxicity was determined by testing the hit compounds in a 10-pt. DRC against Huh-7.5 in the absence of viral infection and measuring the cell viability using resazurin reduction assay as described above. […] Confirmed hits were selected based on their Selectivity Index (SI), a dimensionless value that indicates the magnitude between cytotoxic concentration and effective concentration, and is calculated as: SI = CC50/EC50.

[6] = test system: DENV1, DENV2, DENV3 and DENV4 infection in Huh-7.5; experiment: image-based dengue HT/HCA, all four serotypes (primary screening and overall activity); format: cell-based, Dengue virus
Protocol: as §1
Acquired images were analyzed using our in-house developed image-mining platform (IM). This platform is designed to do high-content screening and directly access the database of images that were sequentially analyzed with specially designed algorithms developed as a customized plug-in to the IM platform. The results of all the analyses were stored in a centralized database. […]
The BioFocus kinase inhibitor library were screened against DENV1, DEN2, DENV3 and DENV4 at 10 µM in 0.5% (v/v) DMSO. […] Compound activity based on percent inhibition and cell toxicity was assessed by IFA and IM analysis as described above. […]
as §4

[7] = test system: DENV1, DENV2, DENV3 and DENV4 in Huh-7.5; experiment: plaque reduction assay; format: cell-based, Dengue virus; settings: 25 µM, Huh-7.5, 30 pfu per well, 7 days
Protocol: Figure 5 Plaque reduction assay. Huh-7.5 cells grown in 24-well tissue culture plate were inoculated with 30 pfu DENV1, DENV2, DENV3 and DENV4 per well and incubated for 7 days in the presence of compound CND1203 at various concentrations. MOCK-infected wells were inoculated with VM only.

[8] = test system: dengue virus infection (M.O.I. 5) in Huh-7.5; experiment: time-of-addition assay; format: cell-based; settings: 25 µM added at −2, 0, 0.5, 1, 2, 4 hpi, M.O.I. 5, data not shown
Protocol: Time-of-addition assay, a strategy to determine the stage of inhibition during the viral infection cycle, has been used to characterize the mode of action of some inhibitors of dengue viral entry (NITD Compound 6), viral replication (NITD-982) and early translation (NITD-2636), [47], [53]. The inhibitor is added at different time points during viral infection and monitored for expression of the viral proteins, replication of the genome or production of infectious progeny virions. […] Compound CND1203 was used for the time-of-addition assay, adding 25 µM at different time points (−2 hpi, 0 hpi, 0.5 hpi, 1 hpi, 2 hpi, 4 hpi) of the dengue virus infection (M.O.I. 5) in Huh-7.5. […] Aminothiazole-based compounds have previously been implicated in the inhibition of HCV replication by binding to an allosteric site on the viral polymerase. However, the structure of these active anti-HCV compounds differ from the 2-aminothiazole hit compounds reported in this study in terms of the substitutions on the scaffold. As a consequence, it is unlikely that our hit compounds interact with the viral polymerase.

[9] = test system: BR DEN2 01-01 infection of Huh-7.5; experiment: assay validation with reference compounds, 10-pt DRC of percent infection; format: cell-based, Dengue virus; settings: Dengue virus, Huh7.5; percent infection normalized against DENV2-infected Huh-7.5, M.O.I. 0.5; read-out: IC50
Protocol: as §1, §2
(§5) In both validation experiments, Huh-7.5 was mixed with DENV1, DENV2, DENV3 or DENV4 at a M.O.I. of 0.5 or VM only for MOCK-infection and dispensed in designated wells using the Thermo Scientific WellMate automated liquid dispenser. For the first validation experiment, the statistical reliability of the dengue HT/HCA was determined by calculating the Z'-factor for the percent infection or percent inhibition. Briefly, the Z'-factor of a defined parameter is calculated using the formula: 1−[(3σp+3σn)/(|μp−μn|)], where the μp, μn, σp and σn are the means (μ) and standard deviations (σ) of the positive (p) and negative (n) controls. For the second validation experiment, the reference compounds were prepared in 2-fold serial dilutions and dispensed in duplicate wells in the 384-well plate, followed by the Huh-7.5 and DENV mixture (M.O.I. 0.5). Percent infection, percent inhibition, and percent cell number were determined using the customized IM platform plug-in. Scatter-plot distribution was generated using TIBCO Spotfire 4.5.0 (TIBCO Software Inc., Somerville, MA). The ten-point dose-response curves (10-pt DRCs) were plotted using the non-linear regression formula: log (inhibitor) vs. response – variable slope (4 parameters), available in GraphPad Prism 5.04 (GraphPad Software Inc., San Diego, CA). The top and bottom values of the reference compounds were unconstrained when the curve fittings of the 10-pt. DRCs were generated.

in vitro = settings: human
Protocol: Acquired images were analyzed using our in-house developed image-mining platform (IM). This platform is designed to do high-content screening and directly access the database of images that were sequentially analyzed with specially designed algorithms developed as a customized plug-in to the IM platform. The results of all the analyses were stored in a centralized database. […] To define the percentage of dengue-infected cells and, conversely the non-infected cells, a modified watershed method was applied. Compared to the original watershed algorithm that uses the morphological gradient image, a weighted gradient image is used for the topographic surface, whose weights are defined as the ridge values computed from the eigen values of the original image. The percentage of non-infected cells, which is also defined as the percent inhibition or percent activity, is derived by using the formula: [1−(A488-positive cells/total cells)]×100%.
as §5, with “The ten-point dose-response curves (10-pt DRCs) were plotted using the non-linear regression formula: log (inhibitor) vs. response – variable slope (4 parameters), available in GraphPad Prism 5.04 (GraphPad Software Inc., San Diego, CA).” left out
Similarly, the percent cell number was normalized based on the measured cell number in MOCK-infected (100% cell number) controls according to the formula: % cell number = (Cmeasured/μCMOCK-infect)×100%, where Cmeasured is the measured cell number in the test well and μCMOCK-infect is the average cell number in the MOCK-infected controls. The statistical validity of the dengue high-throughput screening was determined by calculating for the Z'-factor using the 0.5% DMSO-treatment and MOCK-infected Huh-7.5 as negative and positive controls, respectively. In addition, other parameters, including DRC of a reference compound, were used to evaluate the assay performance.

[10] = DENV1, Huh7.5, Huh-7.5, M.O.I. 0.5, 96 hrs

| SMILES | EC50 ([1]; Huh7.5, 96 h) [µM] | EC50 [2] [µM] | EC50 [3] [µM] | EC50 [4] [µM] | CC50 at 72 h [5] [µM] | antiviral activity against all four dengue serotypes [6] | EC50 [1, 10] [µM] | formation of dengue virus plaques [7] | inhibition of dengue infection in time-of-addition assay [8] | IC50 [9] [µM] | CC50 (in vitro) [µM] |
| --- | --- | --- | --- | --- | --- | --- | --- | --- | --- | --- | --- |
| Nc1ccc(CC(N)c2csc(Nc3ncccn3)n2)cc1 (stereo not shown) [CND1243] | 4.1 | 6.2 | 1 | 7.2 | > 100 | strong antiviral activities against all four dengue serotypes |  |  |  |  |  |
| COc1ccc(CC(N)c2csc(Nc3ncccn3)n2)cc1 (stereo not shown) [CND1201] |  | 7.6 | 2.6 | 5 | > 100 | strong antiviral activities against all four dengue serotypes | 0.9 |  |  |  |  |
| NC(c1csc(Nc2ncccn2)n1)c1ccccc1Cl (stereo not shown) [CND1203] |  | 4.1 | 2.3 | 5 | > 100 | strong antiviral activities against all four dengue serotypes; also recorded: strong antiviral activity against all 4 dengue serotypes | 1.7 | blocked the formation of dengue virus plaques | none of the treatments inhibited dengue infection |  |  |
| NC(=O)c1ncn([C@@H]2O[C@H](CO)[C@@H](O)[C@H]2O)n1 [Ribavirin] |  |  |  |  |  |  |  |  |  | 42.4 | 50.4 |
